Assay results reported in PMC11294565, “Structural insights into strigolactone catabolism by carboxylesterases reveal a conserved conformational regulation” (Nature Communications, 2024).

Assays:
AtCXE15 [1] = molecular target: T1, AtCXE15 (Arabidopsis thaliana, UniProt Q9FG13); assay: differential scanning fluorimetry (Sypro Orange); assay type: binding; conditions: 10 μM protein, 500 μM rac-GR24; 20 mM HEPES, 150 mM NaCl, 1 mM TCEP
T1 construct: gene CXE15; full length (residues 1-329; NTH cap 1-21, core 32-329), E. coli BL21(DE3), 6xHis-SUMO tag cleaved off

AtCXE20 [2] = molecular target: T2, AtCXE20 (Arabidopsis thaliana, UniProt Q9LVB8); assay: differential scanning fluorimetry (Sypro Orange); assay type: binding; conditions: 10 μM protein, 500 μM rac-GR24; 20 mM HEPES, 150 mM NaCl, 1 mM TCEP
T2 construct: gene CXE20; full length (residues 1-327; cap 1-26, core 53-327), codon-optimized synthetic gene, E. coli BL21(DE3), 6xHis-SUMO tag cleaved off
T2 sequence (Q9LVB8 1-327): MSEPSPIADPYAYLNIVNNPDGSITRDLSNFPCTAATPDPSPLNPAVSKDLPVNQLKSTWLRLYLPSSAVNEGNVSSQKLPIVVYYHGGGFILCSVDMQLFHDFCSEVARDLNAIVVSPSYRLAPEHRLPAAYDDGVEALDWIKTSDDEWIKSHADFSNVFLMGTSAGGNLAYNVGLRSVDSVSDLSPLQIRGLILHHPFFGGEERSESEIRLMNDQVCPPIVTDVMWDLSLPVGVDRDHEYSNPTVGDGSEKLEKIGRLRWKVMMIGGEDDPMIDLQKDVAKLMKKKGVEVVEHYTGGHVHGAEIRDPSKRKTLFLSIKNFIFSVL

AtCXE15 [3] = molecular target: T1, AtCXE15; assay: X-ray crystal structure (soak), […] Å; assay type: binding; conditions: covalent; D-ring of GR24 linked to S169; 1 mM rac-GR24 soak
CXE15^CXE20-NTα/β = test system: T3, CXE15^CXE20-NTα/β; assay: fluorescence hydrolysis assay, Michaelis-Menten fit; assay type: biochemical, Arabidopsis thaliana; conditions: 50 mM MES pH 6.0, 250 mM NaCl, 1 mM DTT; 5 μM enzyme
T3 construct: CXE15 core with its NTH replaced by the NT-α/β of CXE20 (one polypeptide)

CXE15^ΔNTH = CXE15^ΔNTH (Arabidopsis thaliana, UniProt Q9FG13); assay: as above; assay type: biochemical; conditions: 50 mM MES pH 6.0, 250 mM NaCl, 1 mM DTT; 2 μM enzyme; no NTH peptide added
AtCXE15 [4] = molecular target: T1, AtCXE15; assay: as above; assay type: biochemical; conditions: 50 mM MES pH 6.0, 250 mM NaCl, 1 mM DTT; 1 μM enzyme
AtCXE20 [5] = molecular target: T2, AtCXE20; assay: as above; assay type: biochemical; conditions: 50 mM MES pH 6.0, 250 mM NaCl, 1 mM DTT; 1 μM enzyme
CXE20^CXE15-NTH = test system: T4, CXE20^CXE15-NTH; assay: as above; assay type: biochemical, Arabidopsis thaliana; conditions: 50 mM MES pH 6.0, 250 mM NaCl, 1 mM DTT; 2 μM enzyme
T4 construct: CXE20 core with its NT-α/β replaced by the NTH of CXE15 (one polypeptide)

T1 sequence (Q9FG13 whole entry, the tested form may be a part): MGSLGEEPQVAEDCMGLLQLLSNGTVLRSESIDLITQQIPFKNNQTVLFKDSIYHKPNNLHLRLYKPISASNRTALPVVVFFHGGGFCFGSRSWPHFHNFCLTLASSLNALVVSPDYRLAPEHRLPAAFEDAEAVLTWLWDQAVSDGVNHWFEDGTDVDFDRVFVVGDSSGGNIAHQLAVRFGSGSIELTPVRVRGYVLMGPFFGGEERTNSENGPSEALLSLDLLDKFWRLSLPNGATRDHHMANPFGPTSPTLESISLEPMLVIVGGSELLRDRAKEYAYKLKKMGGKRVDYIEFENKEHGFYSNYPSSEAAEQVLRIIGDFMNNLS
CXE15^ΔNTH, sequence (Q9FG13 46-329, stated change not applied): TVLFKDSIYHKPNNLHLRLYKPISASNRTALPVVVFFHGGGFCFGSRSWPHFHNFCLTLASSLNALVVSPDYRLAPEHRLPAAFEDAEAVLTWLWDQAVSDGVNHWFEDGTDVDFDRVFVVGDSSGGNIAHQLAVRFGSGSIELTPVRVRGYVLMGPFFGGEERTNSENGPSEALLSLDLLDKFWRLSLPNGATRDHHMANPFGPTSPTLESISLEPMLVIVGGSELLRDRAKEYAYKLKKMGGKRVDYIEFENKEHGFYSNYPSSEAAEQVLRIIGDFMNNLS

Row | SMILES | ΔTm (AtCXE15 [1]) | ΔTm (AtCXE20 [2]) [°C] | X-ray crystal structure (soak), 2.3 Å (AtCXE15 [3]) | Km (CXE15^CXE20-NTα/β) [µM] | Km (CXE15^ΔNTH) [µM] | Km (AtCXE15 [4]) [µM] | Km (AtCXE20 [5]) [µM] | Km (CXE20^CXE15-NTH) [µM]
1 | CC1=CC(OC=C2C(=O)OC3c4ccccc4CC23)OC1=O (racemic) [rac-GR24] | +1.0 °C | −5.0 | hydrolyzed lactone D-ring of rac-GR24 covalently linked to S169 of the catalytic triad |  |  |  |  | 
2 | CCOC(=O)c1ccccc1-c1c2ccc(=O)cc-2oc2cc(OC3C=C(C)C(=O)O3)ccc12 (centres unmarked) [Yoshimulactone Green] |  |  |  | 19.6 ± 2.5 | 62 ± 12.6 | 21 ± 4.7 | 8.6 ± 2.3 | 7.5 ± 1.1
